Measurements as given in US10961231B2, “NTCP inhibitors” (National Institute of Biological Sciences, Beijing, priority 2018, dated 2021).

The compounds below were run against T1, NTCP (Homo sapiens, UniProt Q14973) (assay: [3H]-TCA uptake assay (NTCP inhibition)). Details: IC50, given as a range, marked * (asterisk not explained).
T1 sequence (Q14973 1-349): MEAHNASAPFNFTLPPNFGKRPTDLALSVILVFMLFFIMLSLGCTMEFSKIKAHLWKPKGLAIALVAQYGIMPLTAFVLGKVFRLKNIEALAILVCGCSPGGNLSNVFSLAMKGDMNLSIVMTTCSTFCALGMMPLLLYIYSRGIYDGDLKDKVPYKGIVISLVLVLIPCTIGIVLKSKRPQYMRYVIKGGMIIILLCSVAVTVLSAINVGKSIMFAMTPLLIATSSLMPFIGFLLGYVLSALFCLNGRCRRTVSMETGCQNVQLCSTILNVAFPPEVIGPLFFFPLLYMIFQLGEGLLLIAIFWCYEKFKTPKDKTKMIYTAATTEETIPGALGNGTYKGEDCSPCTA
Type: cell-based
Method in brief: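 Read-out is liquid scintillation counting of Triton X-100 lysates after 15 min, 37° C uptake of 1 μM [3H]-taurocholate in Na+ Ringer's buffer (145 mM Na). Beforehand, PTH and HepG2-NTCP cells had 24 h in PMM for NTCP induction and 2 h of compound or DMSO treatment.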

| SMILES | IC50 |
| --- | --- |
| CCC1NC(=O)C(C2OC(SCc3cc(Cl)cc(Cl)c3)CC2C)N(C)C(=O)C(C(C)C)N(C)C(=O)C(CC(C)C)N(C)C(=O)C(CC(C)C)N(C)C(=O)C(C)NC(=O)C(C)NC(=O)C(CC(C)C)N(C)C(=O)C(C(C)C)NC(=O)C(CC(C)C)N(C)C(=O)CN(C)C1=O (stereo not drawn) [Compound 91B-s] | 1 to 100 µM |
| CCC1NC(=O)C(C2OC(SC(C)c3cc(Cl)cc(Cl)c3)CC2C)N(C)C(=O)C(C(C)C)N(C)C(=O)C(CC(C)C)N(C)C(=O)C(CC(C)C)N(C)C(=O)C(C)NC(=O)C(C)NC(=O)C(CC(C)C)N(C)C(=O)C(C(C)C)NC(=O)C(CC(C)C)N(C)C(=O)CN(C)C1=O (stereo not drawn) [Compound 92A-s] | 1 to 100 µM |
| CCC1NC(=O)C(C2OC(SCc3ccc(Cl)c(Cl)c3)CC2C)N(C)C(=O)C(C(C)C)N(C)C(=O)C(CC(C)C)N(C)C(=O)C(CC(C)C)N(C)C(=O)C(C)NC(=O)C(C)NC(=O)C(CC(C)C)N(C)C(=O)C(C(C)C)NC(=O)C(CC(C)C)N(C)C(=O)CN(C)C1=O (stereo not drawn) [Compound 94A-s] | 1 to 100 µM |
| CCC1NC(=O)C(C2OC(SCc3cccc(N4CCOCC4)c3)CC2C)N(C)C(=O)C(C(C)C)N(C)C(=O)C(CC(C)C)N(C)C(=O)C(CC(C)C)N(C)C(=O)C(C)NC(=O)C(C)NC(=O)C(CC(C)C)N(C)C(=O)C(C(C)C)NC(=O)C(CC(C)C)N(C)C(=O)CN(C)C1=O (stereo not drawn) [Compound 95-s] | 1 to 100 µM |
| CCC1NC(=O)C(C2OC(OCc3cccc(N4CCOCC4)c3)CC2C)N(C)C(=O)C(C(C)C)N(C)C(=O)C(CC(C)C)N(C)C(=O)C(CC(C)C)N(C)C(=O)C(C)NC(=O)C(C)NC(=O)C(CC(C)C)N(C)C(=O)C(C(C)C)NC(=O)C(CC(C)C)N(C)C(=O)CN(C)C1=O (stereo not drawn) [Compound 95] | 1 to 100 µM |
| CCC1NC(=O)C(C2OC(SC(C)c3ccc(Cl)c(Cl)c3)CC2C)N(C)C(=O)C(C(C)C)N(C)C(=O)C(CC(C)C)N(C)C(=O)C(CC(C)C)N(C)C(=O)C(C)NC(=O)C(C)NC(=O)C(CC(C)C)N(C)C(=O)C(C(C)C)NC(=O)C(CC(C)C)N(C)C(=O)CN(C)C1=O (stereo not drawn) [Compound 96A-s] | 1 to 100 µM |
| CCC1NC(=O)C(C2OC(SCc3cc(Cl)ccc3Cl)CC2C)N(C)C(=O)C(C(C)C)N(C)C(=O)C(CC(C)C)N(C)C(=O)C(CC(C)C)N(C)C(=O)C(C)NC(=O)C(C)NC(=O)C(CC(C)C)N(C)C(=O)C(C(C)C)NC(=O)C(CC(C)C)N(C)C(=O)CN(C)C1=O (stereo not drawn) [Compound 98A-s] | 1 to 100 µM |
| CCC1NC(=O)C(C2OC(SCc3ccc(N4CCOCC4)cc3)CC2C)N(C)C(=O)C(C(C)C)N(C)C(=O)C(CC(C)C)N(C)C(=O)C(CC(C)C)N(C)C(=O)C(C)NC(=O)C(C)NC(=O)C(CC(C)C)N(C)C(=O)C(C(C)C)NC(=O)C(CC(C)C)N(C)C(=O)CN(C)C1=O (stereo not drawn) [Compound 99A-s] | 1 to 100 µM |
| CCC1NC(=O)C(C2OC(SCc3ccc4c(c3)OCO4)CC2C)N(C)C(=O)C(C(C)C)N(C)C(=O)C(CC(C)C)N(C)C(=O)C(CC(C)C)N(C)C(=O)C(C)NC(=O)C(C)NC(=O)C(CC(C)C)N(C)C(=O)C(C(C)C)NC(=O)C(CC(C)C)N(C)C(=O)CN(C)C1=O (stereo not drawn) [Compound 100A-s] | 1 to 100 µM |
| CCC1NC(=O)C(C2OC(SCc3cc(F)c(Cl)cc3Cl)CC2C)N(C)C(=O)C(C(C)C)N(C)C(=O)C(CC(C)C)N(C)C(=O)C(CC(C)C)N(C)C(=O)C(C)NC(=O)C(C)NC(=O)C(CC(C)C)N(C)C(=O)C(C(C)C)NC(=O)C(CC(C)C)N(C)C(=O)CN(C)C1=O (stereo not drawn) [Compound 101A-s] | 1 to 100 µM |
| CCC1NC(=O)C(C2OC(SC(C)c3ccc(Cl)cc3)CC2C)N(C)C(=O)C(C(C)C)N(C)C(=O)C(CC(C)C)N(C)C(=O)C(CC(C)C)N(C)C(=O)C(C)NC(=O)C(C)NC(=O)C(CC(C)C)N(C)C(=O)C(C(C)C)NC(=O)C(CC(C)C)N(C)C(=O)CN(C)C1=O (stereo not drawn) [Compound 102-s] | 1 to 100 µM |
| CCC1NC(=O)C(C2OC(OC(C)c3ccc(Cl)cc3)CC2C)N(C)C(=O)C(C(C)C)N(C)C(=O)C(CC(C)C)N(C)C(=O)C(CC(C)C)N(C)C(=O)C(C)NC(=O)C(C)NC(=O)C(CC(C)C)N(C)C(=O)C(C(C)C)NC(=O)C(CC(C)C)N(C)C(=O)CN(C)C1=O (stereo not drawn) [Compound 102] | 1 to 100 µM |
| CCC1NC(=O)C(C2OC(SCc3cc(Cl)c(F)cc3Cl)CC2C)N(C)C(=O)C(C(C)C)N(C)C(=O)C(CC(C)C)N(C)C(=O)C(CC(C)C)N(C)C(=O)C(C)NC(=O)C(C)NC(=O)C(CC(C)C)N(C)C(=O)C(C(C)C)NC(=O)C(CC(C)C)N(C)C(=O)CN(C)C1=O (stereo not drawn) [Compound 103-s] | 1 to 100 µM |
| CCC1NC(=O)C(C2OC(OCc3cc(Cl)c(F)cc3Cl)CC2C)N(C)C(=O)C(C(C)C)N(C)C(=O)C(CC(C)C)N(C)C(=O)C(CC(C)C)N(C)C(=O)C(C)NC(=O)C(C)NC(=O)C(CC(C)C)N(C)C(=O)C(C(C)C)NC(=O)C(CC(C)C)N(C)C(=O)CN(C)C1=O (stereo not drawn) [Compound 103] | 1 to 100 µM |
| CCC1NC(=O)C(C2OC(SCc3cc(Cl)c(Cl)cc3Cl)CC2C)N(C)C(=O)C(C(C)C)N(C)C(=O)C(CC(C)C)N(C)C(=O)C(CC(C)C)N(C)C(=O)C(C)NC(=O)C(C)NC(=O)C(CC(C)C)N(C)C(=O)C(C(C)C)NC(=O)C(CC(C)C)N(C)C(=O)CN(C)C1=O (stereo not drawn) [Compound 104-s] | 1 to 100 µM |
| CCC1NC(=O)C(C2OC(OCc3cc(Cl)c(Cl)cc3Cl)CC2C)N(C)C(=O)C(C(C)C)N(C)C(=O)C(CC(C)C)N(C)C(=O)C(CC(C)C)N(C)C(=O)C(C)NC(=O)C(C)NC(=O)C(CC(C)C)N(C)C(=O)C(C(C)C)NC(=O)C(CC(C)C)N(C)C(=O)CN(C)C1=O (stereo not drawn) [Compound 104] | 1 to 100 µM |
| CCC1NC(=O)C(C2OC(SCc3cccc(OCC4CCOCC4)c3)CC2C)N(C)C(=O)C(C(C)C)N(C)C(=O)C(CC(C)C)N(C)C(=O)C(CC(C)C)N(C)C(=O)C(C)NC(=O)C(C)NC(=O)C(CC(C)C)N(C)C(=O)C(C(C)C)NC(=O)C(CC(C)C)N(C)C(=O)CN(C)C1=O (stereo not drawn) [Compound 105-s] | 1 to 100 µM |
| CCC1NC(=O)C(C2OC(OCc3cccc(OCC4CCOCC4)c3)CC2C)N(C)C(=O)C(C(C)C)N(C)C(=O)C(CC(C)C)N(C)C(=O)C(CC(C)C)N(C)C(=O)C(C)NC(=O)C(C)NC(=O)C(CC(C)C)N(C)C(=O)C(C(C)C)NC(=O)C(CC(C)C)N(C)C(=O)CN(C)C1=O (stereo not drawn) [Compound 105] | 1 to 100 µM |

Same assay, conditions: IC50, given as a range; assay not given

| SMILES | IC50 |
| --- | --- |
| CCC1NC(=O)C(C2OC(OCc3ccc(N4CCOCC4)cc3)CC2C)N(C)C(=O)C(C(C)C)N(C)C(=O)C(CC(C)C)N(C)C(=O)C(CC(C)C)N(C)C(=O)C(C)NC(=O)C(C)NC(=O)C(CC(C)C)N(C)C(=O)C(C(C)C)NC(=O)C(CC(C)C)N(C)C(=O)CN(C)C1=O [Compound 99A, [2-((2R,3R)-3-methyl-5-(4-morpholinobenzyloxy)tetrahydrofuran-2-yl)-2-(methylamino)acetic acid]^1-cyclosporin A] | 1 to 10 µM |

Same assay, conditions: given as a range; assay not given

| SMILES | IC50 |
| --- | --- |
| CCC1NC(=O)C(C2OC(SCc3cc(Cl)cc(Cl)c3)CC2C)N(C)C(=O)C(C(C)C)N(C)C(=O)C(CC(C)C)N(C)C(=O)C(CC(C)C)N(C)C(=O)C(C)NC(=O)C(C)NC(=O)C(CC(C)C)N(C)C(=O)C(C(C)C)NC(=O)C(CC(C)C)N(C)C(=O)CN(C)C1=O [Compound 91A-s, [2-((2R,3R)-5-(3,5-dichlorobenzylthio)-3-methyltetrahydrofuran-2-yl)-2-(methylamino)acetic acid]^1-cyclosporin A] | 0.001 to 1 µM |
| CCC1NC(=O)C(C2OC(OCc3cc(Cl)cc(Cl)c3)CC2C)N(C)C(=O)C(C(C)C)N(C)C(=O)C(CC(C)C)N(C)C(=O)C(CC(C)C)N(C)C(=O)C(C)NC(=O)C(C)NC(=O)C(CC(C)C)N(C)C(=O)C(C(C)C)NC(=O)C(CC(C)C)N(C)C(=O)CN(C)C1=O [Compound 91B, [2-((2R,3R)-5-(3,5-dichlorobenzyloxy)-3-methyltetrahydrofuran-2-yl)-2-(methylamino)acetic acid]^1-cyclosporin A] | 0.001 to 1 µM |
| CCC1NC(=O)C(C2OC(OC(C)c3cc(Cl)cc(Cl)c3)CC2C)N(C)C(=O)C(C(C)C)N(C)C(=O)C(CC(C)C)N(C)C(=O)C(CC(C)C)N(C)C(=O)C(C)NC(=O)C(C)NC(=O)C(CC(C)C)N(C)C(=O)C(C(C)C)NC(=O)C(CC(C)C)N(C)C(=O)CN(C)C1=O [Compound 92A, [2-((2R,3R)-5-((S)-1-(3,5-dichlorophenyl)ethoxy)-3-methyltetrahydrofuran-2-yl)-2-(methylamino)acetic acid]^1-cyclosporin A] | 0.001 to 1 µM |
| CCC1NC(=O)C(C2OC(OCc3ccc(Cl)c(Cl)c3)CC2C)N(C)C(=O)C(C(C)C)N(C)C(=O)C(CC(C)C)N(C)C(=O)C(CC(C)C)N(C)C(=O)C(C)NC(=O)C(C)NC(=O)C(CC(C)C)N(C)C(=O)C(C(C)C)NC(=O)C(CC(C)C)N(C)C(=O)CN(C)C1=O [Compound 94B, [2-((2R,3R)-5-(3,4-dichlorobenzyloxy)-3-methyltetrahydrofuran-2-yl)-2-(methylamino)acetic acid]^1-cyclosporin A] | 0.001 to 1 µM |
| CCC1NC(=O)C(C2OC(OCc3ccc4c(c3)OCO4)CC2C)N(C)C(=O)C(C(C)C)N(C)C(=O)C(CC(C)C)N(C)C(=O)C(CC(C)C)N(C)C(=O)C(C)NC(=O)C(C)NC(=O)C(CC(C)C)N(C)C(=O)C(C(C)C)NC(=O)C(CC(C)C)N(C)C(=O)CN(C)C1=O [Compound 100A, [2-((2R,3R)-5-(benzo[d][1,3]dioxol-5-ylmethoxy)-3-methyltetrahydrofuran-2-yl)-2-(methylamino)acetic acid]^1-cyclosporin A] | 0.001 to 1 µM |
